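Values below derive from 48-hour exposures of cells grown in 96-well plates, with endpoints linearly interpolated between the two concentrations bracketing the appropriate inhibition level. GI50 is the concentration that inhibits growth by half.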 Calls of active or inactive are those of the source. No stated cut-off is given here; in the data, active = GI50 up to about 1.1 µM and inactive = higher.
Tests used:
Assay in all cases: growth of human tumour cells (NCI), 48 h
A549 = test system: A549
ACHN = test system: ACHN
BT-549 = test system: BT-549
CAKI-1 = test system: CAKI-1
CCRF-CEM = test system: CCRF-CEM
COLO 205 = test system: COLO 205
DU-145 = test system: DU-145
EKVX = test system: EKVX
HCC 2998 = test system: HCC 2998
HCT-116 = test system: HCT-116
HCT-15 = test system: HCT-15
HL-60 = test system: HL-60
HOP-62 = test system: HOP-62
K562 = test system: K562
KM12 = test system: KM12
LOX IMVI = test system: LOX IMVI
M14 = test system: M14
MCF7 = test system: MCF7
MDA-MB-231 = test system: MDA-MB-231
MDA-MB-435 = test system: MDA-MB-435
MDA-N = test system: MDA-N
MOLT-4 = test system: MOLT-4
Malme-3M = test system: Malme-3M
NCI-H23 = test system: NCI-H23
NCI-H460 = test system: NCI-H460
NCI/ADR-RES = test system: NCI/ADR-RES
OVCAR-3 = test system: OVCAR-3
OVCAR-4 = test system: OVCAR-4
OVCAR-5 = test system: OVCAR-5
OVCAR-8 = test system: OVCAR-8
PC-3 = test system: PC-3
RPMI-8226 = test system: RPMI-8226
SF-295 = test system: SF-295
SK-MEL-28 = test system: SK-MEL-28
SK-MEL-2 = test system: SK-MEL-2
SK-MEL-5 = test system: SK-MEL-5
SN12C = test system: SN12C
SNB-19 = test system: SNB-19
SR = test system: SR
TK-10 = test system: TK-10
U-251 = test system: U-251
UACC-257 = test system: UACC-257
UO-31 = test system: UO-31
786-0 = test system: 786-0
A498 = test system: A498
HOP-92 = test system: HOP-92
HT-29 = test system: HT-29
Hs-578T = test system: Hs-578T
IGROV-1 = test system: IGROV-1
NCI-H226 = test system: NCI-H226
NCI-H522 = test system: NCI-H522
RXF 393 = test system: RXF 393
SF-268 = test system: SF-268
SF-539 = test system: SF-539
SNB-75 = test system: SNB-75
SW-620 = test system: SW-620
UACC-62 = test system: UACC-62
SK-OV-3 = test system: SK-OV-3

Measured: GI50

CC(C(=O)O)c1ccc(-n2nnc3c(=O)[nH][nH]c(=O)c32)cc1 (stereo not drawn)
inactive: A549 > 100 µM | ACHN > 100 µM | BT-549 > 100 µM | CAKI-1 > 100 µM | CCRF-CEM > 100 µM | COLO 205 > 100 µM | DU-145 > 100 µM | EKVX > 100 µM | HCC 2998 > 100 µM | HCT-116 > 100 µM | HL-60 > 100 µM | HOP-62 > 100 µM | K562 > 100 µM | KM12 > 100 µM | LOX IMVI > 100 µM | M14 > 100 µM | MCF7 > 100 µM | MDA-MB-231 > 100 µM | MDA-MB-435 > 100 µM | MDA-N > 100 µM | MOLT-4 > 100 µM | Malme-3M > 100 µM | NCI-H23 > 100 µM | NCI-H460 > 100 µM | NCI/ADR-RES > 100 µM | OVCAR-3 > 100 µM | OVCAR-4 > 100 µM | OVCAR-5 > 100 µM | OVCAR-8 > 100 µM | PC-3 > 100 µM | RPMI-8226 > 100 µM | SF-295 > 100 µM | SK-MEL-28 > 100 µM | SK-MEL-2 > 100 µM | SK-MEL-5 > 100 µM | SN12C > 100 µM | SNB-19 > 100 µM | SR > 100 µM | TK-10 > 100 µM | U-251 > 100 µM | UACC-257 > 100 µM | UO-31 > 100 µM
> 100 µM: HCT-15

CC(=O)NC1C(OCc2ccccc2)OC(CO)C(O)C1OCC(=O)NC(C)C(=O)NC(CCC(=O)NCCCCCNc1c2ccccc2nc2cccc([N+](=O)[O-])c12)C(N)=O (stereo not drawn)
active: 786-0 < 0.0001 µM | A498 < 0.0001 µM | A549 < 0.0001 µM | ACHN < 0.0001 µM | BT-549 < 0.0001 µM | CAKI-1 < 0.0001 µM | CCRF-CEM 0.000861 µM | COLO 205 < 0.0001 µM | DU-145 < 0.0001 µM | EKVX 0.00197 µM | HCC 2998 < 0.0001 µM | HCT-116 < 0.0001 µM | HL-60 < 0.0001 µM | HOP-62 < 0.0001 µM | HOP-92 < 0.0001 µM | HT-29 < 0.0001 µM | Hs-578T < 0.01 µM | IGROV-1 0.00102 µM | K562 < 0.0001 µM | KM12 < 0.0001 µM | LOX IMVI 0.00169 µM | M14 < 0.0001 µM | MCF7 < 0.0001 µM | MDA-MB-231 < 0.0001 µM | MDA-MB-435 < 0.0001 µM | MDA-N < 0.01 µM | MOLT-4 < 0.0001 µM | Malme-3M < 0.0001 µM | NCI-H226 0.000202 µM | NCI-H23 < 0.0001 µM | NCI-H460 < 0.0001 µM | NCI-H522 < 0.0001 µM | NCI/ADR-RES 0.000327 µM | OVCAR-3 < 0.01 µM | OVCAR-4 0.00074 µM | OVCAR-5 < 0.0001 µM | OVCAR-8 < 0.0001 µM | PC-3 < 0.0001 µM | RPMI-8226 < 0.0001 µM | RXF 393 < 0.01 µM | SF-268 < 0.0001 µM | SF-295 < 0.0001 µM | SF-539 < 0.0001 µM | SK-MEL-28 < 0.0001 µM | SK-MEL-2 < 0.0001 µM | SK-MEL-5 < 0.0001 µM | SN12C < 0.0001 µM | SNB-19 < 0.0001 µM | SNB-75 < 0.0001 µM | SR 0.00217 µM | SW-620 < 0.0001 µM | TK-10 0.023 µM | U-251 < 0.0001 µM | UACC-257 < 0.0001 µM | UO-31 < 0.01 µM
< 0.0001 µM: HCT-15

[N-]=[N+]=C(C(=O)N1CCCC1=O)S(=O)(=O)c1ccccc1
inactive: 786-0 97.9 µM | A549 > 100 µM | ACHN > 100 µM | BT-549 > 100 µM | CCRF-CEM 80.7 µM | COLO 205 > 100 µM | DU-145 > 100 µM | EKVX > 100 µM | HCC 2998 > 100 µM | HCT-116 80.4 µM | HL-60 55.1 µM | HOP-62 58.6 µM | HT-29 > 10 µM | Hs-578T 29.4 µM | IGROV-1 > 100 µM | K562 69.5 µM | KM12 > 100 µM | LOX IMVI 42.9 µM | M14 91.2 µM | MCF7 32.7 µM | MDA-MB-231 > 100 µM | MDA-MB-435 77.8 µM | MDA-N 44 µM | MOLT-4 50.2 µM | Malme-3M 28.3 µM | NCI-H23 72.9 µM | NCI-H460 39 µM | NCI-H522 30.9 µM | NCI/ADR-RES > 100 µM | OVCAR-3 76 µM | OVCAR-8 > 100 µM | PC-3 > 100 µM | RPMI-8226 48.3 µM | RXF 393 70.6 µM | SF-268 > 100 µM | SF-295 > 100 µM | SF-539 98.6 µM | SK-MEL-28 48.5 µM | SK-MEL-2 62.5 µM | SK-MEL-5 98.9 µM | SN12C > 100 µM | SNB-19 > 100 µM | SNB-75 87.7 µM | SR 87.7 µM | SW-620 > 100 µM | TK-10 > 100 µM | U-251 > 100 µM | UACC-257 > 100 µM | UACC-62 70.6 µM | UO-31 > 100 µM
51.9 µM: HCT-15

O=S(=O)(O)c1ccc2c(/N=N/c3ccccc3)c(O)ccc2c1
inactive: A549 > 100 µM | ACHN > 100 µM | HOP-62 > 100 µM | HT-29 > 100 µM | Hs-578T > 100 µM | K562 > 100 µM | LOX IMVI > 100 µM | MDA-MB-231 > 100 µM | MDA-N > 100 µM | Malme-3M > 100 µM | NCI-H226 > 100 µM | NCI-H23 > 100 µM | NCI-H522 > 100 µM | NCI/ADR-RES > 100 µM | OVCAR-4 > 100 µM | PC-3 > 100 µM | RPMI-8226 > 100 µM | SF-268 > 100 µM | SF-295 > 100 µM | TK-10 > 100 µM | UACC-62 > 100 µM

CCNc1nc2ccccc2nc1NCC
inactive: 786-0 > 100 µM | A498 > 100 µM | A549 > 100 µM | ACHN > 100 µM | BT-549 > 100 µM | CAKI-1 > 100 µM | CCRF-CEM > 100 µM | COLO 205 > 100 µM | DU-145 > 100 µM | EKVX > 100 µM | HCC 2998 > 100 µM | HCT-116 > 100 µM | HL-60 > 100 µM | HT-29 > 100 µM | Hs-578T > 100 µM | IGROV-1 > 100 µM | K562 > 100 µM | KM12 > 100 µM | LOX IMVI > 100 µM | M14 > 100 µM | MCF7 > 100 µM | MDA-MB-231 > 100 µM | MDA-MB-435 > 100 µM | MDA-N > 100 µM | MOLT-4 > 100 µM | Malme-3M > 100 µM | NCI-H226 > 100 µM | NCI-H23 > 100 µM | NCI-H460 > 100 µM | NCI-H522 > 100 µM | NCI/ADR-RES > 100 µM | OVCAR-3 > 100 µM | OVCAR-5 > 100 µM | OVCAR-8 > 100 µM | PC-3 > 100 µM | RPMI-8226 > 100 µM | RXF 393 > 100 µM | SF-268 > 100 µM | SF-295 > 100 µM | SF-539 > 100 µM | SK-MEL-28 > 100 µM | SK-MEL-2 > 100 µM | SK-MEL-5 > 100 µM | SK-OV-3 > 100 µM | SN12C > 100 µM | SNB-19 > 100 µM | SNB-75 > 100 µM | SR > 100 µM | SW-620 > 100 µM | TK-10 > 100 µM | U-251 > 100 µM | UACC-257 > 100 µM | UACC-62 > 100 µM | UO-31 > 100 µM
> 100 µM: HCT-15

CS(=O)(=O)c1nc(-c2cc3c(c(S(C)(=O)=O)n2)CCC3)cc2c1CCCCC2
inactive: 786-0 70.8 µM | A549 > 100 µM | ACHN 45 µM | BT-549 20.5 µM | CAKI-1 21 µM | CCRF-CEM > 100 µM | COLO 205 > 100 µM | DU-145 > 100 µM | EKVX > 100 µM | HCC 2998 > 100 µM | HCT-116 > 100 µM | HL-60 > 100 µM | HOP-62 16.9 µM | HT-29 > 100 µM | Hs-578T 9.08 µM | IGROV-1 20.1 µM | K562 > 100 µM | KM12 > 100 µM | LOX IMVI > 100 µM | M14 > 100 µM | MDA-MB-231 54.7 µM | MDA-MB-435 > 100 µM | MDA-N > 100 µM | MOLT-4 > 100 µM | Malme-3M 34.5 µM | NCI-H226 56.6 µM | NCI-H23 41.4 µM | NCI-H522 15.2 µM | NCI/ADR-RES 49.5 µM | OVCAR-3 > 100 µM | OVCAR-4 > 100 µM | OVCAR-5 > 100 µM | OVCAR-8 66.5 µM | PC-3 > 100 µM | RPMI-8226 > 100 µM | RXF 393 18.5 µM | SF-268 14.8 µM | SF-295 31.7 µM | SK-MEL-28 > 100 µM | SK-MEL-2 24.8 µM | SK-MEL-5 > 100 µM | SK-OV-3 11.9 µM | SN12C > 100 µM | SNB-19 34.4 µM | SNB-75 6.37 µM | SW-620 > 100 µM | TK-10 42.7 µM | U-251 41.9 µM | UACC-257 > 100 µM | UACC-62 22.9 µM
active: UO-31 0.834 µM
> 100 µM: HCT-15

From ChEMBL document CHEMBL1201862, “PubChem BioAssay data set” (2004)
